In ChEMBL document CHEMBL4265999, “Design, Synthesis, and Characterization of Novel Small Molecules as Broad Range Antischistosomal Agents” (ACS Med Chem Lett, 2018):

Columns and labels:
Schistosoma mansoni = experiment: Antischistosomal activity against Schistosoma mansoni infected in golden syrian hamster assessed as worm killing at 143 uM pretreated for 45 mins followed by compound washout measured after 14 days; format: functional
Schistosoma haematobium = experiment: Antischistosomal activity against Schistosoma haematobium infected in golden syrian hamster assessed as worm killing at 143 uM pretreated for 45 mins followed by compound washout measured after 14 days; format: functional
Schistosoma japonicum = experiment: Antischistosomal activity against Schistosoma japonicum infected in golden syrian hamster assessed as worm killing at 143 uM pretreated for 45 mins followed by compound washout measured after 14 days; format: functional
[1] = Dissociation constant, pKa of the compound; format: physicochemical
[2] = Lipophilicity, log D of the compound; format: physicochemical; settings: octanol/water

Q: For O=[N+]([O-])c1cc(NC2CCCN(Cc3ccccn3)C2)ccc1CO (stereo not given), which Activity (Schistosoma mansoni) is on record?
A: Its Activity is 0%.

Q: With O=[N+]([O-])c1ccc(CN2CCC(Nc3ccc(CO)c([N+](=O)[O-])c3)C2)cc1 (stereo not given) as the compound, how does the Activity (Schistosoma mansoni) read?
A: The Activity was 17%.

Q: What does the source list for O=[N+]([O-])c1cc(NC2CCN(Cc3cccc(C(F)(F)F)c3)C2)ccc1CO (stereo not given)?
A: Activity (Schistosoma haematobium): 8%; Activity (Schistosoma mansoni): 93%

Q: For O=[N+]([O-])c1cc(NC2CCN(Cc3ccc(C(F)(F)F)cc3)CC2)ccc1CO, which Activity (Schistosoma haematobium) is on record?
A: The Activity was 0%.

Q: What about the Activity (Schistosoma mansoni) of the same compound?
A: Its Activity is 81%.

Q: With O=[N+]([O-])c1cc(NC2CCCNC2)ccc1CO (stereo not given) as the compound, how does the Activity (Schistosoma mansoni) read?
A: Its Activity is 50%.

Q: For O=[N+]([O-])c1cc(NC2CCN(Cc3ccccn3)C2)ccc1CO (stereo not given), which Activity (Schistosoma mansoni) is on record?
A: The Activity was 0%.

Q: For O=[N+]([O-])c1cc(NC2CCCN(Cc3ccccc3)C2)ccc1CO (stereo not given), which Activity (Schistosoma mansoni) is on record?
A: The Activity was 60%.

Q: Which Activity (Schistosoma mansoni) does the source give for O=[N+]([O-])c1cc(NC2CCN(Cc3ccccc3C(F)(F)F)C2)ccc1CO (stereo not given) here?
A: The Activity was 27%.

Q: Which Activity (Schistosoma haematobium) does the source give for O=[N+]([O-])c1cc(NC2CCN(Cc3ccc(C(F)(F)F)cc3)C2)ccc1CO (stereo not given) here?
A: Its Activity is 10%.

Q: What about the Activity (Schistosoma mansoni) of the same compound?
A: Its Activity is 100%.

Q: Which Activity (Schistosoma haematobium) does the source give for O=[N+]([O-])c1cc(NC2CCCN(Cc3ccc(OC(F)(F)F)cc3)C2)ccc1CO (stereo not given) here?
A: The Activity was 43%.

Q: What about the Activity (Schistosoma japonicum) of the same compound?
A: The Activity was 10%.

Q: And the Activity (Schistosoma mansoni)?
A: The Activity was 40%.

Q: Which Activity (Schistosoma mansoni) does the source give for O=[N+]([O-])c1cc(NC2CCN(Cc3ccccc3)C2)ccc1CO (stereo not given) here?
A: Its Activity is 75%.

Q: For COc1ccccc1CN1CCC(Nc2ccc(CO)c([N+](=O)[O-])c2)C1 (stereo not given), which Activity (Schistosoma mansoni) is on record?
A: Its Activity is 7%.

Q: Which results are given for O=[N+]([O-])c1cc(NC2CCCN(Cc3ccccc3C(F)(F)F)C2)ccc1CO (stereo not given)?
A: Activity (Schistosoma haematobium): 40%; Activity (Schistosoma japonicum): 83%; Activity (Schistosoma mansoni): 75%; pKa [1]: 5.9; logD [2]: 3.27

Q: With Cn1cncc1CN1CCCC(Nc2ccc(CO)c([N+](=O)[O-])c2)C1 (stereo not given) as the compound, how does the Activity (Schistosoma mansoni) read?
A: Its Activity is 20%.

Q: For O=[N+]([O-])c1cc(NC2CCN(Cc3ccccc3C(F)(F)F)CC2)ccc1CO, which Activity (Schistosoma mansoni) is on record?
A: Its Activity is 20%.

Q: Which Activity (Schistosoma haematobium) does the source give for O=[N+]([O-])c1cc(NC2CCN(Cc3ccc(OC(F)(F)F)cc3)CC2)ccc1CO here?
A: The Activity was 14%.

Q: And the Activity (Schistosoma mansoni)?
A: The Activity was 97%.

Q: For CC(C)N1CCC(Nc2ccc(CO)c([N+](=O)[O-])c2)C1 (stereo not given), which Activity (Schistosoma mansoni) is on record?
A: The Activity was 40%.

Q: With O=[N+]([O-])c1cc(NC2CCCN(CCc3ccccc3)C2)ccc1CO (stereo not given) as the compound, how does the Activity (Schistosoma mansoni) read?
A: The Activity was 40%.

Q: Which Activity (Schistosoma mansoni) does the source give for O=[N+]([O-])c1cc(NC2CCN(Cc3c[nH]c4ccccc34)C2)ccc1CO (stereo not given) here?
A: The Activity was 85%.

Q: For O=[N+]([O-])c1cc(NC2CCN(Cc3ccccc3OC(F)(F)F)C2)ccc1CO (stereo not given), which Activity (Schistosoma haematobium) is on record?
A: Its Activity is less than 40%.

Q: What about the Activity (Schistosoma mansoni) of the same compound?
A: The Activity was 100%.

Q: Which Activity (Schistosoma mansoni) does the source give for O=[N+]([O-])c1cc(NC2CCN(Cc3cccc(OC(F)(F)F)c3)C2)ccc1CO (stereo not given) here?
A: The Activity was 60%.

Q: For CC(C)N1CCCC(Nc2ccc(CO)c([N+](=O)[O-])c2)C1 (stereo not given), which Activity (Schistosoma mansoni) is on record?
A: Its Activity is 10%.

Q: For O=[N+]([O-])c1cc(NC2CCCN(Cc3ccccc3OC(F)(F)F)C2)ccc1CO (stereo not given), which Activity (Schistosoma haematobium) is on record?
A: The Activity was less than 40%.

Q: What about the Activity (Schistosoma mansoni) of the same compound?
A: Its Activity is 84%.

Q: Which Activity (Schistosoma mansoni) does the source give for Cn1cncc1CN1CCC(Nc2ccc(CO)c([N+](=O)[O-])c2)C1 (stereo not given) here?
A: The Activity was 0%.

Q: For O=[N+]([O-])c1cc(NC2CCN(Cc3ccccc3F)C2)ccc1CO (stereo not given), which Activity (Schistosoma mansoni) is on record?
A: The Activity was 30%.

Q: Which Activity (Schistosoma haematobium) does the source give for O=[N+]([O-])c1cc(NC2CCN(Cc3ccc(OC(F)(F)F)cc3)C2)ccc1CO (stereo not given) here?
A: The Activity was 40%.

Q: And the Activity (Schistosoma japonicum)?
A: The Activity was 0%.

Q: What about the Activity (Schistosoma mansoni) of the same compound?
A: The Activity was 87%.

Q: For O=[N+]([O-])c1cc(NC2CCN(Cc3ccc(Cl)cc3Cl)C2)ccc1CO (stereo not given), which Activity (Schistosoma mansoni) is on record?
A: The Activity was 17%.

Q: With O=[N+]([O-])c1cc(NC2CCN(CCc3ccccc3)C2)ccc1CO (stereo not given) as the compound, how does the Activity (Schistosoma mansoni) read?
A: The Activity was 7%.

Q: What does the source list for O=[N+]([O-])c1cc(NC2CCCN(Cc3cccc(C(F)(F)F)c3)C2)ccc1CO (stereo not given)?
A: Activity (Schistosoma haematobium): 2%; Activity (Schistosoma japonicum): 2%; Activity (Schistosoma mansoni): 100%

Q: For O=[N+]([O-])c1cc(NC2CCNC2)ccc1CO (stereo not given), which Activity (Schistosoma mansoni) is on record?
A: Its Activity is 10%.

Q: Which Activity (Schistosoma mansoni) does the source give for O=[N+]([O-])c1cc(NC2CCCN(Cc3c[nH]c4ccccc34)C2)ccc1CO (stereo not given) here?
A: Its Activity is 26%.

Q: What does the source list for CC(C)NCC1CCc2cc(CO)c([N+](=O)[O-])cc2N1 (stereo not given) [OXAMNIQUINE]?
A: Activity (Schistosoma haematobium): 0%; Activity (Schistosoma japonicum): 0%; Activity (Schistosoma mansoni): 50 - 85%
